Measurements from ChEMBL document CHEMBL4251601 (Eur J Med Chem, 2018).

Tests used:
[1] = AUC (0 to infinity) in Sprague-Dawley rat at 2 mg/kg, iv administered as single dose by LC-MS/MS analysis; format: ADME, organism-based; design: dose 2 mg/kg, route intravenous, time infinity; details: Sprague-Dawley, in vivo
[2] = Half life in Sprague-Dawley rat at 2 mg/kg, iv administered as single dose by LC-MS/MS analysis; format: ADME, organism-based; details: in vivo
[3] = target: CDK8/Cyclin C (Homo sapiens) (UniProt P49336+P24863); experiment: Inhibition of recombinant full length human His-tagged CDK8/Cyclin-C expressed in baculovirus expression system at 0.1 uM by LanthaScreen assay relative to control
[4] = target: Aurora kinase A (Homo sapiens) (UniProt O14965); experiment: Inhibition of recombinant full length human His-tagged AURKA expressed in baculovirus expression system at 0.1 uM by Z'-Lyte assay relative to control
Chain of Aurora kinase A (Homo sapiens) (O14965 whole entry): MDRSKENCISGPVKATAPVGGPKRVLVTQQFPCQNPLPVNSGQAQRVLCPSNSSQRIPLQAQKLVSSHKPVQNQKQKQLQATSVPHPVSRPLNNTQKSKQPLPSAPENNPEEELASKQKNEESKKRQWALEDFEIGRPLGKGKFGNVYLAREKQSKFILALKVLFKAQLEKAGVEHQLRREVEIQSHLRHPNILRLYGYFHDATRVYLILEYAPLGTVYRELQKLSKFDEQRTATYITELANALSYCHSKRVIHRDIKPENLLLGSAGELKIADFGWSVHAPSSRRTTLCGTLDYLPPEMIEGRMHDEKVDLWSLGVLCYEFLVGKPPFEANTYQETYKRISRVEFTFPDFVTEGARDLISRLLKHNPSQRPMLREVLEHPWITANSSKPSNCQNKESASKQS

[5] = target: Aurora kinase B (Homo sapiens) (UniProt Q96GD4); experiment: Inhibition of recombinant full length human His-tagged AURKB expressed in baculovirus expression system at 0.1 uM by Z'-Lyte assay relative to control
Chain of Aurora kinase B (Homo sapiens) (Q96GD4 whole entry): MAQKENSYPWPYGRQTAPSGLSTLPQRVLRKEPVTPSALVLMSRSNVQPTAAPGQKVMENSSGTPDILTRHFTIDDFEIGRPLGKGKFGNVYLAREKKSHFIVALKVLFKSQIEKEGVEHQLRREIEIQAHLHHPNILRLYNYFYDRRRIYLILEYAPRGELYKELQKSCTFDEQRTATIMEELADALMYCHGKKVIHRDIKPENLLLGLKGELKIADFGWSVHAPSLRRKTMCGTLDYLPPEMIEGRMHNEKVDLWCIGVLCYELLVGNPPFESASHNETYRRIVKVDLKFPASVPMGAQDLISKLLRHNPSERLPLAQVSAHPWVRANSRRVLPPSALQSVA

[6] = target: Dual specificity protein kinase CLK1 (Homo sapiens) (UniProt P49759); experiment: Inhibition of recombinant human GST-tagged CLK1 expressed in Escherichia coli at 0.1 uM by Z'-Lyte assay relative to control
[7] = target: Receptor tyrosine-protein kinase erbB-2 (Homo sapiens) (UniProt P04626); experiment: Inhibition of recombinant human His-tagged ERBB2 cytoplasmic domain expressed in baculovirus expression system at 0.1 uM by Z'-Lyte assay relative to control
Chain of Receptor tyrosine-protein kinase erbB-2 (Homo sapiens) (P04626 whole entry, the tested form may be a part): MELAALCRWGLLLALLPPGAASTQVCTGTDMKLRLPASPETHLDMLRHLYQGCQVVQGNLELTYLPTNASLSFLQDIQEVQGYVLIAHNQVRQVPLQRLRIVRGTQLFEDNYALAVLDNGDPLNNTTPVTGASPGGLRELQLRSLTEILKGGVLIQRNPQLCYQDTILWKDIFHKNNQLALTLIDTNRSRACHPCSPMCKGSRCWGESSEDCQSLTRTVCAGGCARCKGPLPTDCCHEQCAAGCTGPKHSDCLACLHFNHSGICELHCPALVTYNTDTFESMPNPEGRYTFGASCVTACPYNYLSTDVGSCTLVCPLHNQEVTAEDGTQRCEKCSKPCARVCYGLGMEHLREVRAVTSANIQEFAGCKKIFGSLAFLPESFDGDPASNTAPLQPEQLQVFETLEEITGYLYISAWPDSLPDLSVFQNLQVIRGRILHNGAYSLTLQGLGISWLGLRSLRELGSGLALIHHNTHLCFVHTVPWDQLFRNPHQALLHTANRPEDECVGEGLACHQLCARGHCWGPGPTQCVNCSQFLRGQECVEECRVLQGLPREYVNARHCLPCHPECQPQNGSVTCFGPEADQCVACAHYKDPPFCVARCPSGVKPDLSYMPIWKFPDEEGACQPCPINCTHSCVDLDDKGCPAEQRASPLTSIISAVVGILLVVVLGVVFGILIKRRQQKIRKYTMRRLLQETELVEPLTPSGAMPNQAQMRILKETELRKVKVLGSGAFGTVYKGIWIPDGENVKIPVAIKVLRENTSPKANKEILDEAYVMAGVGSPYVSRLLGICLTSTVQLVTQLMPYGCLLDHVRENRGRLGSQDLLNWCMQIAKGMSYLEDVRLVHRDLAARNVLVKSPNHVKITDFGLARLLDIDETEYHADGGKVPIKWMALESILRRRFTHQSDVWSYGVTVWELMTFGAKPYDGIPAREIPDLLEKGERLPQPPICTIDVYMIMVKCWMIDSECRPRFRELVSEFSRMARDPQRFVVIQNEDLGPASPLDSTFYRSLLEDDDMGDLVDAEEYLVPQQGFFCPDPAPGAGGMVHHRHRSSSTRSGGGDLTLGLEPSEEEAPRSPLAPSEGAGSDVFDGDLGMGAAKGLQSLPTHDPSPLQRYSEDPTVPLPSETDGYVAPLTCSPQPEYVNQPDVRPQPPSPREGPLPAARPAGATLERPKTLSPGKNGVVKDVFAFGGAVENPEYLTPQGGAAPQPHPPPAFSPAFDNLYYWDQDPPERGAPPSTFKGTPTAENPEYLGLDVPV

[8] = target: Tyrosine-protein kinase Lck (Homo sapiens) (UniProt P06239); experiment: Inhibition of recombinant human full length His-tagged LCK expressed in baculovirus expression system at 0.1 uM by Z'-Lyte assay relative to control
[9] = target: Tyrosine-protein kinase Lyn (Homo sapiens) (UniProt P07948); experiment: Inhibition of recombinant human full length GST-tagged Lyn-A expressed in insect cells at 0.1 uM by Z'-Lyte assay relative to control
Chain of Tyrosine-protein kinase Lyn (Homo sapiens) (P07948 2-512 limits assumed): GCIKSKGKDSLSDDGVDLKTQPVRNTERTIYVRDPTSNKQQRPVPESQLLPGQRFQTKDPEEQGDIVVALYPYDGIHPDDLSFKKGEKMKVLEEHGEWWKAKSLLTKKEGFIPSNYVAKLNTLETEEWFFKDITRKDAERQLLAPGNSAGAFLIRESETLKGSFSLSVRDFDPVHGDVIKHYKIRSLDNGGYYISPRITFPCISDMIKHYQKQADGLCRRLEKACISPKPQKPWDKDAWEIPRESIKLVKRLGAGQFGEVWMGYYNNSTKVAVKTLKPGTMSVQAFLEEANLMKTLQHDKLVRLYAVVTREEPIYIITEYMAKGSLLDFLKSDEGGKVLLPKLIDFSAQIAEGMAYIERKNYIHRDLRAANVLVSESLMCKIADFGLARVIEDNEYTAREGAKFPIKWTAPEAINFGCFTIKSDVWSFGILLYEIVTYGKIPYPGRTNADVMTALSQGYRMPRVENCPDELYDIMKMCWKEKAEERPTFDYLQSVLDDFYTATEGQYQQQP

[10] = target: Mitogen-activated protein kinase 14 (Homo sapiens) (UniProt Q16539); experiment: Inhibition of recombinant human full length GST-tagged p38alpha expressed in Escherichia coli at 0.1 uM by Z'-Lyte assay relative to control
Chain of Mitogen-activated protein kinase 14 (Homo sapiens) (Q16539 whole entry, canonical isoform): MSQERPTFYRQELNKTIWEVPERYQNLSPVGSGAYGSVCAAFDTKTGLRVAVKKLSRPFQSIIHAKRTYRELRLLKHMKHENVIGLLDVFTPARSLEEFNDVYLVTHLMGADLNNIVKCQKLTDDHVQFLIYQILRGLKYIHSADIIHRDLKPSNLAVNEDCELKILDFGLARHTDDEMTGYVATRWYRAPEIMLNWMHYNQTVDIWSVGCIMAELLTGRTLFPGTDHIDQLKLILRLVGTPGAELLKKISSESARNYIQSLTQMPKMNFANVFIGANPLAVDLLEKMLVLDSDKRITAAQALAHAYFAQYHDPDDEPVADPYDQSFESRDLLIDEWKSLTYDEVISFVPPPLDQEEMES

[11] = target: Phosphatidylinositol 4,5-bisphosphate 3-kinase catalytic subunit delta isoform (Homo sapiens) (UniProt O00329); experiment: Inhibition of PI3K delta (unknown origin) at 0.1 uM by ADP-Glo assay relative to control
[12] = target: Protein-tyrosine kinase 6 (Homo sapiens) (UniProt Q13882); experiment: Inhibition of recombinant human full length His-tagged PTK6 expressed in baculovirus expression system at 0.1 uM by TR-FRET assay relative to control
[13] = target: Tyrosine-protein kinase Tec (Homo sapiens) (UniProt P42680); experiment: Inhibition of recombinant human full length His-tagged TEC expressed in baculovirus expression system at 0.1 uM by TR-FRET assay relative to control
Chain of Tyrosine-protein kinase Tec (Homo sapiens) (P42680 whole entry): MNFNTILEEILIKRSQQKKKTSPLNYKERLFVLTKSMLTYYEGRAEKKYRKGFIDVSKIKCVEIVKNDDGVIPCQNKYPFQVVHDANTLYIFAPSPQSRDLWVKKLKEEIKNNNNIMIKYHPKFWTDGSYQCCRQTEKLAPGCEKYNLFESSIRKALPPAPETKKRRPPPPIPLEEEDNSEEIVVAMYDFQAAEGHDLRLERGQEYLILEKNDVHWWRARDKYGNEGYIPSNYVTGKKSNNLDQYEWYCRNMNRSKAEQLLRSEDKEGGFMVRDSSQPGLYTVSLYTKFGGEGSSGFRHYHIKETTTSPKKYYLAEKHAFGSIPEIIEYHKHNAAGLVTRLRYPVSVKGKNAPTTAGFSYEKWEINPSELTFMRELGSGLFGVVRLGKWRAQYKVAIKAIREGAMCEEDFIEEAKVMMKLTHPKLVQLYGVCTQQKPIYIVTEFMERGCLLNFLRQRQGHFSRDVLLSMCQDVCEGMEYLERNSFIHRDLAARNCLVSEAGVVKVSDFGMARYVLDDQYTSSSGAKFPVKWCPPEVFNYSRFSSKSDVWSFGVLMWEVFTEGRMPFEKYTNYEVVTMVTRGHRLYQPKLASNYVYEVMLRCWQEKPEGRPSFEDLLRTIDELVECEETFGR

[14] = target: Casein kinase II subunit alpha (Homo sapiens) (UniProt P68400); experiment: Inhibition of recombinant full length human His-tagged CK2alpha1 expressed in baculovirus expression system at 1 uM by Z'-Lyte assay relative to control
Chain of Casein kinase II subunit alpha (Homo sapiens) (P68400 whole entry, looked up): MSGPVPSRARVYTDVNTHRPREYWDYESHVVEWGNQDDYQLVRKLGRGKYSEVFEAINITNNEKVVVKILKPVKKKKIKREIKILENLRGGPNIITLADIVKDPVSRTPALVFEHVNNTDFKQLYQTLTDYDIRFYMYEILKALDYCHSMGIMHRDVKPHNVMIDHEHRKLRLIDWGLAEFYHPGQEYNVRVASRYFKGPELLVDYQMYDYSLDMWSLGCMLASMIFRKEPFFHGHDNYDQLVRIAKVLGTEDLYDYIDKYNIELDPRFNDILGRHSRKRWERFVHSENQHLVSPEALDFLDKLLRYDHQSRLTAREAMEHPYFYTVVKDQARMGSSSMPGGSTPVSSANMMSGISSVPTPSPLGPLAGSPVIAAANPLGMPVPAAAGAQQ

[15] = target: Beta-adrenergic receptor kinase 1 (Homo sapiens) (UniProt P25098); experiment: Inhibition of recombinant human full length His-tagged GRK2 expressed in baculovirus expression system at 1 uM by Z'-Lyte assay relative to control
[16] = target: Insulin receptor (Homo sapiens) (UniProt P06213); experiment: Inhibition of recombinant human GST-tagged INSR cytoplasmic domain expressed in baculovirus expression system at 1 uM by Z'-Lyte assay relative to control
[17] = target: Tyrosine-protein kinase ITK/TSK (Homo sapiens) (UniProt Q08881); experiment: Inhibition of recombinant full length human GST-tagged ITK expressed in baculovirus expression system at 1 uM by TR-FRET assay relative to control
Chain of Tyrosine-protein kinase ITK/TSK (Homo sapiens) (Q08881 whole entry): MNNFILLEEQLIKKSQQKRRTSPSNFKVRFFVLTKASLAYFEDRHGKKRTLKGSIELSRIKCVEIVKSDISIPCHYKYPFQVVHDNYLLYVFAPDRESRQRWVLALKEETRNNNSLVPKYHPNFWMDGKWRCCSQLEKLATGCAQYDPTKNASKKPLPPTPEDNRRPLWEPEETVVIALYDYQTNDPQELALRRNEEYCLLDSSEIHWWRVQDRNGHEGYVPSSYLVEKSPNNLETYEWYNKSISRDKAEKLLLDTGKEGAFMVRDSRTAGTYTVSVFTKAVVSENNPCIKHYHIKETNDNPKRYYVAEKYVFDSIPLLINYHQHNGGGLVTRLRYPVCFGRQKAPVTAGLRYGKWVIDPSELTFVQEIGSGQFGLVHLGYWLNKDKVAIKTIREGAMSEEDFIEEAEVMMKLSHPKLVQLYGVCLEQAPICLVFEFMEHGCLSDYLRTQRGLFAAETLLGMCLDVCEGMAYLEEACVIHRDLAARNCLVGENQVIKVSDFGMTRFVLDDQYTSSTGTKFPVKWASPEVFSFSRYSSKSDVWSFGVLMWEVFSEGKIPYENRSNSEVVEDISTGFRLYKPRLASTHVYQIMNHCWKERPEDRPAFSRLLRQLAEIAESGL

[18] = target: Tyrosine-protein kinase JAK2 (Homo sapiens) (UniProt O60674); experiment: Inhibition of recombinant human GST-tagged JAK2 expressed in baculovirus expression system at 1 uM by TR-FRET assay relative to control
[19] = target: Mitogen-activated protein kinase 8 (Homo sapiens) (UniProt P45983); experiment: Inhibition of recombinant human full length His-tagged JNK1 expressed in baculovirus expression system at 1 uM by Z'-Lyte assay relative to control
Chain of Mitogen-activated protein kinase 8 (Homo sapiens) (P45983 whole entry): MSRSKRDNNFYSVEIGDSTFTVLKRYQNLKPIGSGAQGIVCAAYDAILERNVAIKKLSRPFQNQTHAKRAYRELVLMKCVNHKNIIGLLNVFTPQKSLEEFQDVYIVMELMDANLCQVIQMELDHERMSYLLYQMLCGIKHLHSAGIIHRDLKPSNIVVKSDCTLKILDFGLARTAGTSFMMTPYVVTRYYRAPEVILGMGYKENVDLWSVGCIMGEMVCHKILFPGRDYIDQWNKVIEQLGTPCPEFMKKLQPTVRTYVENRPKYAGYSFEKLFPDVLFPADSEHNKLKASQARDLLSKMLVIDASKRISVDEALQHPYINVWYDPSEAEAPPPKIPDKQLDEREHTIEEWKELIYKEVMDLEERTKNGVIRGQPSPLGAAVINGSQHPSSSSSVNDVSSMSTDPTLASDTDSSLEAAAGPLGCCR

[20] = target: Tyrosine-protein kinase Lyn (Homo sapiens) (UniProt P07948); experiment: Inhibition of recombinant human full length GST-tagged Lyn-A expressed in insect cells at 1 uM by Z'-Lyte assay relative to control
[21] = target: Serine/threonine-protein kinase MARK1 (Homo sapiens) (UniProt Q9P0L2); experiment: Inhibition of recombinant human full length GST-tagged MARK1 expressed in baculovirus expression system at 1 uM by Z'-Lyte assay relative to control
[22] = target: PI3-kinase p110-alpha/p85-alpha (Homo sapiens) (UniProt P27986+P42336); experiment: Inhibition of recombinant full-length human N-terminal His6-tagged p110alpha/p85alpha expressed in baculovirus infected Sf21 cells at 1 uM by ADP-Glo assay relative to control
[23] = target: Proto-oncogene tyrosine-protein kinase receptor Ret (Homo sapiens) (UniProt P07949); experiment: Inhibition of recombinant human GST-tagged RET cytoplasmic domain (658 to 1114 residues) expressed in baculovirus expression system at 1 uM by Z'-Lyte assay relative to control
[24] = system: Proto-oncogene tyrosine-protein kinase receptor Ret (Homo sapiens), P07949 [V804L]; experiment: Inhibition of recombinant human GST-tagged RET V804L mutant expressed in baculovirus expression system at 1 uM by Z'-Lyte assay relative to control
[25] = target: Tyrosine-protein kinase Tec (Homo sapiens) (UniProt P42680); experiment: Inhibition of recombinant human full length His-tagged TEC expressed in baculovirus expression system at 1 uM by TR-FRET assay relative to control
[26] = Dissociation constant, pKa of the compound at pH 3 to 11 by pH metric method; format: physicochemical
[27] = Volume of distribution at steady state in ICR mouse at 2 mg/kg, iv administered as single dose by LC-MS/MS analysis; format: ADME, organism-based; details: in vivo, read-out: Vdss
[28] = Half life in CD-1 mouse brain at 10 mg/kg, po administered as single dose by LC-MS/MS analysis; format: ADME, organism-based
[29] = Unbound AUC (0 to 24 hrs) in CD-1 mouse brain at 10 mg/kg, po administered as single dose by LC-MS/MS analysis; format: ADME, organism-based; details: in vivo
U-87 MG [30] = experiment: Antitumor activity against luciferase-fused human U87MG cells orthotopically xenografted in nude mouse assessed as tumor growth inhibition at 6.25 mg/kg, po qd for 4 weeks by bioluminescence imaging relative to control; format: functional, U-87MG ATCC; details: 672 h, read-out: TGI
U-87 MG [31] = experiment: Antitumor activity against luciferase-fused human U87MG cells orthotopically xenografted in nude mouse assessed as tumor growth inhibition at 50 mg/kg, po qd for 4 weeks by bioluminescence imaging relative to control; format: functional, U-87MG ATCC; details: 672 h, read-out: TGI
U-87 MG [32] = experiment: Antitumor activity against luciferase-fused human U87MG cells orthotopically xenografted in nude mouse assessed as increase in mouse life span at 50 mg/kg, po qd for 5 weeks relative to control; format: functional, U-87MG ATCC; details: 840 h

In the case of CC1=Nc2c(F)cc(-c3nc(Nc4ccc(C5CCN(C)CC5)cn4)ncc3F)cc2C12CCCC2 [CROZBACICLIB], the AUC(0-inf) [1] is reported as 959 ng·h/mL, the half-life [2] is reported as 7.1 h and the inhibition [3] is reported as 43%. It also gave an inhibition [4] of -2%, an inhibition [5] of 0% and an inhibition [6] of 28%. For the same compound, the inhibition [7] was 1%, the inhibition [8] was 3% and the inhibition [9] was 0%. For the same compound, the inhibition [10] was 0%, the inhibition [11] was 2% and the inhibition [12] was 14%. It also gave an inhibition [13] of 11%, an inhibition [14] of 23% and an inhibition [15] of -1%. It also gave an inhibition [16] of 12%, an inhibition [17] of 3% and an inhibition [18] of 64%. The inhibition [19] was 82%, the inhibition [20] was 2% and the inhibition [21] was 16%. For the same compound, the inhibition [22] was 4%, the inhibition [23] was 10% and the inhibition [24] was 16%. It also gave an inhibition [25] of 2%, a pKa [26] of 8.19 and a Vd [27] of 17.8 L/kg. The half-life [28] was 6.38 h, the fAUC [29] was 14.87 ng·h/g and the inhibition in vivo at 6.25 mg/kg (U-87 MG [30]) was 79%. The inhibition in vivo at 50 mg/kg (U-87 MG [31]) was 99% and the ILS at 50 mg/kg (U-87 MG [32]) was 162%.
